The target of one assay is T1, ALK (Homo sapiens, UniProt Q9UM73).
T1 construct: host or cells: baculovirus expression system
Description: ALK Kinase Assay (ELISA/TRF, PLC-γ substrate). It is filed as biochemical. The note with it: ALK Kinase Inhibition; read-out: ALK Potency. The essentials:
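Read-out is time-resolved fluorescence from a Eu-N1-labeled PT66 antibody that binds phosphorylated PLC-γ, the substrate coated at 10 μg/mL in TBS. ALK at 30 ng/ml starts the reaction, which runs 15 minutes at 37° C.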
A general note: An ELISA detects its analyte on a solid surface through an enzyme-linked reagent.

The next assay has as its target T2, JAK2 (Homo sapiens, UniProt O60674).
T2 construct: host or cells: baculovirus expression system
The assay is described as follows: Recombinant Human JAK2 Kinase Assay (TRF). It is filed as biochemical. The note with it: JAK2 Kinase Inhibition; read-out: JAK2 Potency. The essentials:
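TRF read-out: Eu-N1 PY100 anti-phosphotyrosine antibody detects product. Enzyme is baculovirus-expressed JAK2 at 15 ng/ml; substrate is a biotinyl 15-mer peptide bound to Neutravidin-coated wells. Buffer 20 mM HEPES pH 7.2, 0.2 μM ATP, 1 mM MnCl2, 0.1% BSA, 2.5% DMSO final; 20 min, RT.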

The structures appear in SMILES notation. Where only a bound is given, the exact number is not on record here.

T2 sequence (O60674 whole entry): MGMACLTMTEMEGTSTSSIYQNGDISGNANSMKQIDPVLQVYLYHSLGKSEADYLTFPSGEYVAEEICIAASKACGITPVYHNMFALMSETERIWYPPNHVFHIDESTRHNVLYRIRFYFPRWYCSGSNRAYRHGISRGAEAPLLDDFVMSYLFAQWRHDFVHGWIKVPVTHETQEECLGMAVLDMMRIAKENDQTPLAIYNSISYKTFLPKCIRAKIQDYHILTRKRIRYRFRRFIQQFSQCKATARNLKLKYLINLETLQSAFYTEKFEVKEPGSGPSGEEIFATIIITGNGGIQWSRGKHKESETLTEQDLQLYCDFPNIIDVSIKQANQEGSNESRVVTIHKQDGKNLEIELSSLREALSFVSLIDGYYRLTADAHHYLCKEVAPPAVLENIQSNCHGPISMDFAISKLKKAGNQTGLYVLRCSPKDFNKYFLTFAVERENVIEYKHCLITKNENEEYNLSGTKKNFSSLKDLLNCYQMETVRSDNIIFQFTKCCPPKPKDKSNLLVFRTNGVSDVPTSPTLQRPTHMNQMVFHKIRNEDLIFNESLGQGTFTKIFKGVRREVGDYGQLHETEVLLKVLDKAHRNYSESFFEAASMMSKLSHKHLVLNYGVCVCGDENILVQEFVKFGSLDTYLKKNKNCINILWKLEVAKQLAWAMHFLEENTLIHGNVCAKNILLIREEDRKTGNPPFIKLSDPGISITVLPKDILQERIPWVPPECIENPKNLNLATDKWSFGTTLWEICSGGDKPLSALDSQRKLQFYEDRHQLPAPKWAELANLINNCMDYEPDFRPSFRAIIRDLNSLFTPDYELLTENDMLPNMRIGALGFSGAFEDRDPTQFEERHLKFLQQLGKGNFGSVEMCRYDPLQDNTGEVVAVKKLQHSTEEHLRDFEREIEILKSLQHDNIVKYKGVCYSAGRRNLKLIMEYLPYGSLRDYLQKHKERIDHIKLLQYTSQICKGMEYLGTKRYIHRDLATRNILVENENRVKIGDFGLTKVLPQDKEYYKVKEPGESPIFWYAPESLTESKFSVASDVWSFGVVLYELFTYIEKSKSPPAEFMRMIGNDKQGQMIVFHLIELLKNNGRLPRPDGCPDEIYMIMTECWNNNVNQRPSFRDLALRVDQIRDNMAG
T1 sequence (Q9UM73 19-1620): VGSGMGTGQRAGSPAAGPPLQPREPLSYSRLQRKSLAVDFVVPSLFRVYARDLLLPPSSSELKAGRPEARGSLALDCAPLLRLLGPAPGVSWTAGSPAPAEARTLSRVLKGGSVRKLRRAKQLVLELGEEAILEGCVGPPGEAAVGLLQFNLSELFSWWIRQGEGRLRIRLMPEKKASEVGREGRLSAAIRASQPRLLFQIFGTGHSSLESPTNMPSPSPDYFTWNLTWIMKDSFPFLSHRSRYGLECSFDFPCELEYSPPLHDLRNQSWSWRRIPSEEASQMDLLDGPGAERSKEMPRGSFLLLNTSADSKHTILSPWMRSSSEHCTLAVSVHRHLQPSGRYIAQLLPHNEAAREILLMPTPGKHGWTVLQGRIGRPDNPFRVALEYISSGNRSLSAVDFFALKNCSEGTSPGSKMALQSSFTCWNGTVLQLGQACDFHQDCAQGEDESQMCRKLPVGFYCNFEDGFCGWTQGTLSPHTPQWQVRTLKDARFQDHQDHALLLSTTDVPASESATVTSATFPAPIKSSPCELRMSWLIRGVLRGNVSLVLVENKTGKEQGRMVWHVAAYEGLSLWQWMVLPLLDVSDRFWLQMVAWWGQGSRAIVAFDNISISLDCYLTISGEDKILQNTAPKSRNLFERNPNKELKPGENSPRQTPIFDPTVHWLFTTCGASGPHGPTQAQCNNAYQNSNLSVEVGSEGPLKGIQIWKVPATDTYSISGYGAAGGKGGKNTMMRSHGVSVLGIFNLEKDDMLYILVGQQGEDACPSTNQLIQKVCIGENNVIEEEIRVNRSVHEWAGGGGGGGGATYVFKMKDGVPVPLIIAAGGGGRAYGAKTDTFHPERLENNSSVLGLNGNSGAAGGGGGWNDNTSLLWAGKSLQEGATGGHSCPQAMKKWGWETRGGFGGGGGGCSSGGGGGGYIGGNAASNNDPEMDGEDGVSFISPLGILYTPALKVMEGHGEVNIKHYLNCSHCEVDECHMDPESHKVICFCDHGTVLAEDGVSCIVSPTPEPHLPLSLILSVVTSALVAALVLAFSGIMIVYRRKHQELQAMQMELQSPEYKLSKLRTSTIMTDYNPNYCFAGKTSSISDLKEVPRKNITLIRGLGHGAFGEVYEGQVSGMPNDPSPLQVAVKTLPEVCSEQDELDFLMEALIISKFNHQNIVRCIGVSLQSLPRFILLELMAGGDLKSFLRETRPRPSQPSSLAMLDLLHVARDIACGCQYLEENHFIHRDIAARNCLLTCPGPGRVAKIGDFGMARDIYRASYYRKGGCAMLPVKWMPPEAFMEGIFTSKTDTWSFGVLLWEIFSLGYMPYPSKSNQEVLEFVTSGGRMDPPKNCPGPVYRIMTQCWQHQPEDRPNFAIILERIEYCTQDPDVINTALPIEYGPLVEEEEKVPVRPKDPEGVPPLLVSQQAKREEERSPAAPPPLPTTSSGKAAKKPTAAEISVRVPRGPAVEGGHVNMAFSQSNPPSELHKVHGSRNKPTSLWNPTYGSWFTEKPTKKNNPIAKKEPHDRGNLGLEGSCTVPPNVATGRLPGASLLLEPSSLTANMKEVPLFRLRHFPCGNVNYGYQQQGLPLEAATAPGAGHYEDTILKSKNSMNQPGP

Take `COc1ccccc1-c1ccc2cnc(Nc3ccc(N4CCCC4)cc3)nn12` [Example 169, [7-(2-Methoxy-phenyl)-pyrrolo[2,1-f][1,2,4]triazin-2-yl]-(4-pyrrolidin-1-yl-phenyl)-amine]: the values for the IC50 on ALK and on JAK2 were 0.1 to 1 µM and under 0.1 µM, respectively.

In the case of `COc1ccccc1-c1ccc2cnc(Nc3ccc4[nH]ccc4c3)nn12` [Example 170, (1H-Indol-5-yl)-[7-(2-methoxy-phenyl)-pyrrolo[2,1-f][1,2,4]triazin-2-yl]-amine], the IC50 is 1 to 10 µM on ALK and under 0.1 µM on JAK2.

Regarding `COc1ccc(Cl)cc1-c1ccc2cnc(Nc3ccc4[nH]ccc4c3)nn12` [Example 171, [7-(5-Chloro-2-methoxy-phenyl)-pyrrolo[2,1-f][1,2,4]triazin-2-yl]-(1H-indol-5-yl)-amine], the IC50 at ALK is 0.1 to 1 µM; at JAK2, under 0.1 µM.

For the compound `COc1ccccc1-c1ccc2cnc(Nc3ccc4ncccc4c3)nn12` [Example 172, [7-(2-Methoxy-phenyl)-pyrrolo[2,1-f][1,2,4]triazin-2-yl]-quinolin-6-yl-amine], the IC50 at ALK was 1 to 10 µM; at JAK2, under 0.1 µM.

Regarding `COc1ccc(Cl)cc1-c1ccc2cnc(Nc3ccc4ncccc4c3)nn12` [Example 173, [7-(5-Chloro-2-methoxy-phenyl)-pyrrolo[2,1-f][1,2,4]triazin-2-yl]-quinolin-6-yl-amine], the values for the IC50 at ALK and at JAK2 were 0.1 to 1 µM and under 0.1 µM, respectively.

`c1cc(Nc2ncc3cccn3n2)cc(N2CCOCC2)c1` [Example 174, (3-Morpholin-4-yl-phenyl)-pyrrolo[2,1-f][1,2,4]triazin-2-yl-amine]: the IC50 at ALK is over 10 µM; at JAK2 it was 0.1 to 1 µM.

Take `Fc1cccc(-c2ccc3cnc(Nc4cccc(N5CCOCC5)c4)nn23)c1` [Example 175, [7-(3-Fluoro-phenyl)-pyrrolo[2,1-f][1,2,4]triazin-2-yl]-(3-morpholin-4-yl-phenyl)-amine]: the IC50 was 0.1 to 1 µM at ALK and under 0.1 µM on JAK2.

Regarding `Clc1cccc(-c2ccc3cnc(Nc4ccc5[nH]ccc5c4)nn23)c1` [Example 176, [7-(3-Chloro-phenyl)-pyrrolo[2,1-f][1,2,4]triazin-2-yl]-(1H-indol-5-yl)-amine], the IC50 at ALK is over 10 µM; on JAK2 it was under 0.1 µM.

As to `Clc1cccc(-c2ccc3cnc(Nc4ccc5ncccc5c4)nn23)c1` [Example 177, [7-(3-Chloro-phenyl)-pyrrolo[2,1-f][1,2,4]triazin-2-yl]-quinolin-6-yl-amine], the IC50 on ALK is 0.1 to 1 µM; on JAK2, under 0.1 µM.

With `COc1ccccc1-c1ccc2cnc(Nc3cccc(N4CCN(CCO)CC4)c3)nn12` [Example 178, 2-(4-{3-[7-(2-Methoxy-phenyl)-pyrrolo[2,1-f][1,2,4]triazin-2-ylamino]-phenyl}-piperazin-1-yl)-ethanol], the IC50 on ALK and on JAK2 was under 0.1 µM in each case.

With `OCCN1CCN(c2cccc(Nc3ncc4ccc(-c5cccc(Cl)c5)n4n3)c2)CC1` [Example 179, 2-(4-{3-[7-(3-Chloro-phenyl)-pyrrolo[2,1-f][1,2,4]triazin-2-ylamino]-phenyl}-piperazin-1-yl)-ethanol], the IC50 on ALK and at JAK2 was under 0.1 µM throughout.

For `COc1ccc(Cl)cc1-c1ccc2cnc(Nc3cccc(N4CCN(CCO)CC4)c3)nn12` [Example 180, 2-(4-{3-[7-(5-Chloro-2-methoxy-phenyl)-pyrrolo[2,1-f][1,2,4]triazin-2-ylamino]-phenyl}-piperazin-1-yl)-ethanol], the IC50 on ALK and at JAK2 was under 0.1 µM each time.

As to `CS(=O)(=O)c1ccc(-c2ccc3cnc(Nc4cccc(N5CCN(CCO)CC5)c4)nn23)cc1` [Example 181, 2-(4-{3-[7-(4-Methanesulfonyl-phenyl)-pyrrolo[2,1-f][1,2,4]triazin-2-ylamino]-phenyl}-piperazin-1-yl)-ethanol], the IC50 is 0.1 to 1 µM on ALK and under 0.1 µM at JAK2.

As for `CS(=O)(=O)Nc1ccc(-c2ccc3cnc(Nc4cccc(N5CCOCC5)c4)nn23)cc1` [Example 182, N-{4-[2-(3-Morpholin-4-yl-phenylamino)-pyrrolo[2,1-f][1,2,4]triazin-7-yl]-phenyl}-methanesulfonamide], the IC50 on ALK was 0.1 to 1 µM; at JAK2 it was under 0.1 µM.

For `CS(=O)(=O)Nc1cccc(-c2ccc3cnc(Nc4cccc(N5CCOCC5)c4)nn23)c1` [Example 183, N-{3-[2-(3-Morpholin-4-yl-phenylamino)-pyrrolo[2,1-f][1,2,4]triazin-7-yl]-phenyl}-methanesulfonamide], the results for the IC50 at ALK and on JAK2 were 0.1 to 1 µM and under 0.1 µM, respectively.

Take `CS(=O)(=O)c1cccc(-c2ccc3cnc(Nc4cccc(N5CCOCC5)c4)nn23)c1` [Example 184, [7-(3-Methanesulfonyl-phenyl)-pyrrolo[2,1-f][1,2,4]triazin-2-yl]-(3-morpholin-4-yl-phenyl)-amine]: the IC50 on ALK is 1 to 10 µM; on JAK2 it was under 0.1 µM.

Consider `COc1cc(Nc2ncc3ccc(-c4cccc(S(C)(=O)=O)c4)n3n2)cc(OC)c1OC` [Example 185, [7-(3-Methanesulfonyl-phenyl)-pyrrolo[2,1-f][1,2,4]triazin-2-yl]-(3,4,5-trimethoxy-phenyl)-amine], for which the IC50 is 0.1 to 1 µM at ALK and under 0.1 µM at JAK2.

Regarding `COc1ccccc1-c1ccc2cnc(Nc3ccc(N4CCOCC4)c(F)c3)nn12` [Example 186, (3-Fluoro-4-morpholin-4-yl-phenyl)-[7-(2-methoxy-phenyl)-pyrrolo[2,1-f][1,2,4]triazin-2-yl]-amine], the IC50 on ALK is 0.1 to 1 µM; on JAK2, under 0.1 µM.

As to `Fc1cc(Nc2ncc3ccc(-c4cccc(Cl)c4)n3n2)ccc1N1CCOCC1` [Example 187, [7-(3-Chloro-phenyl)-pyrrolo[2,1-f][1,2,4]triazin-2-yl]-(3-fluoro-4-morpholin-4-yl-phenyl)-amine], the IC50 on ALK is over 10 µM; at JAK2 it was under 0.1 µM.

Take `COc1ccc(Cl)cc1-c1ccc2cnc(Nc3ccc(N4CCOCC4)c(F)c3)nn12` [Example 188, [7-(5-Chloro-2-methoxy-phenyl)-pyrrolo[2,1-f][1,2,4]triazin-2-yl]-(3-fluoro-4-morpholin-4-yl-phenyl)-amine]: the IC50 was 1 to 10 µM on ALK and under 0.1 µM at JAK2.

Consider `CS(=O)(=O)c1ccc(-c2ccc3cnc(Nc4ccc(N5CCOCC5)c(F)c4)nn23)cc1` [Example 189, (3-Fluoro-4-morpholin-4-yl-phenyl)-[7-(4-methanesulfonyl-phenyl)-pyrrolo[2,1-f][1,2,4]triazin-2-yl]-amine], for which the IC50 at ALK was over 10 µM; at JAK2, under 0.1 µM.

In the case of `COCCOc1ncc2ccc(-c3cccc(Cl)c3)n2n1` [Example 190, 7-(3-Chloro-phenyl)-2-(2-methoxy-ethoxy)-pyrrolo[2,1-f][1,2,4]triazine], the IC50 on ALK is over 10 µM; on JAK2 it was under 0.1 µM.

For `COCCOc1ncc2ccc(-c3cc(Cl)ccc3OC)n2n1` [Example 191, 7-(5-Chloro-2-methoxy-phenyl)-2-(2-methoxy-ethoxy)-pyrrolo[2,1-f][1,2,4]triazine], the IC50 was over 10 µM at ALK and under 0.1 µM at JAK2.

As to `CC(C)S(=O)(=O)c1ccc(-c2ccc3cnc(Nc4cccc(N5CCOCC5)c4)nn23)cc1` [Example 192, (3-Morpholin-4-yl-phenyl)-{7-[4-(propane-2-sulfonyl)-phenyl]-pyrrolo[2,1-f][1,2,4]triazin-2-yl}-amine], the IC50 is 1 to 10 µM at ALK and under 0.1 µM at JAK2.

For `CS(=O)(=O)c1ccc(-c2ccc3cnc(Nc4cccc(N5CCOCC5)c4)nn23)cc1F` [Example 193, [7-(3-Fluoro-4-methanesulfonyl-phenyl)-pyrrolo[2,1-f][1,2,4]triazin-2-yl]-(3-morpholin-4-yl-phenyl)-amine], the results for the IC50 on ALK and at JAK2 were 1 to 10 µM and under 0.1 µM, respectively.

For the compound `CNC(=O)c1ccc(-c2ccc3cnc(Nc4cccc(N5CCOCC5)c4)nn23)cc1` [Example 194, N-Methyl-4-[2-(3-morpholin-4-yl-phenylamino)-pyrrolo[2,1-f][1,2,4]triazin-7-yl]-benzamide], the IC50 at ALK is 0.1 to 1 µM; at JAK2, under 0.1 µM.

Regarding `COc1ccccc1-c1ccc2cnc(Nc3cccc(N4CCC(N5CCOCC5)CC4)c3)nn12` [Example 195, [7-(2-Methoxy-phenyl)-pyrrolo[2,1-f][1,2,4]triazin-2-yl]-[3-(4-morpholin-4-yl-piperidin-1-yl)-phenyl]-amine], the IC50 at ALK and on JAK2 was under 0.1 µM in each case.

Consider `COc1ccc(Cl)cc1-c1ccc2cnc(Nc3cccc(N4CCC(N5CCOCC5)CC4)c3)nn12` [Example 196, [7-(5-Chloro-2-methoxy-phenyl)-pyrrolo[2,1-f][1,2,4]triazin-2-yl]-[3-(4-morpholin-4-yl-piperidin-1-yl)-phenyl]-amine], for which the IC50 on ALK and on JAK2 was under 0.1 µM each time.

As for `COCCOc1ncc2ccc(-c3ccc(S(C)(=O)=O)cc3)n2n1` [Example 197, 7-(4-Methanesulfonyl-phenyl)-2-(2-methoxy-ethoxy)-pyrrolo[2,1-f][1,2,4]triazine], the IC50 on ALK was over 10 µM; at JAK2, 0.1 to 1 µM.

Consider `Cn1cc(-c2ccc3cnc(Nc4cccc(N5CCOCC5)c4)nn23)cn1` [Example 198, [7-(1-Methyl-1H-pyrazol-4-yl)-pyrrolo[2,1-f][1,2,4]triazin-2-yl]-(3-morpholin-4-yl-phenyl)-amine], for which the IC50 at ALK is 0.1 to 1 µM; at JAK2, under 0.1 µM.
